Results on 3 molecules are retold here after ChEMBL document CHEMBL1201862, “PubChem BioAssay data set” (2004).

Assay in all cases: growth of human tumour cells (NCI), 48 h
Test [1] deals with CCRF-CEM.
Test [2] has as its system ACHN.
In test [3] the test system is OVCAR-4.
In test [4] the test system is A498.
Test [5] concerns OVCAR-3.
Test [6] deals with NCI-H460.
The subject of test [7] is NCI-H226.
In test [8] the test system is RXF 393.
In test [9] the test system is UACC-257.
In test [10] the test system is OVCAR-5.
Test [11] has as its system A549.
Test [12] concerns RPMI-8226.
Test [13] relates to SN12C.
Test [14] concerns NCI-H23.
The subject of test [15] is HOP-62.
Test [16] deals with 786-0.
For test [17], the system named is HOP-92.
For test [18], the system named is DU-145.
The test system of test [19] is OVCAR-8.
The subject of test [20] is TK-10.

Molecules are shown by their SMILES.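 All cell lines were grown in 96-well plates and treated with compound for 48 hours. GI50: concentration for 50% inhibition of growth.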 The source made the active and inactive calls. Rule as the data show it: active = GI50 up to about 1.1 µM and inactive = higher.

`Oc1cc(-c2ccccc2Cl)nc2cc3c(cc12)OCO3`: the GI50 in test [1] was 0.0422 µM (active); in test [2], 0.731 µM (active); in [3], 2.76 µM (inactive); in [4], 0.116 µM (active); in [5] it was 0.0608 µM (active); in [6] it was 0.0719 µM (active). The GI50 in test [7] is 0.13 µM (active); in test [8], 0.0416 µM (active); in test [9] it was 0.443 µM (active); in test [10] it was 1.09 µM (active); in test [11], 0.156 µM (active); in [12], 0.101 µM (active). The GI50 was 0.261 µM (active) in test [13]; 0.122 µM (active) in test [14]; 0.132 µM (active) in test [15]; 0.32 µM (active) in [16]; 0.102 µM (active) in test [17]; 0.121 µM (active) in test [18]. The GI50 in test [19] is 0.198 µM (active); in [20], 0.731 µM (active).

As for `O=C1/C(=C/c2ccc(O)cc2)CCC1CNc1ccc(Cl)cc1` (stereo not given), the GI50 is 0.624 µM (active) in test [1]; 0.76 µM (active) in [2]; 2.96 µM (inactive) in [3]; 15 µM (inactive) in [4]; 2.28 µM (inactive) in test [5]; 4.15 µM (inactive) in test [6]. Further, the GI50 in [7] was 12.6 µM (inactive); in [8], 6.31 µM (inactive); in test [9], 3.05 µM (inactive); in [10] it was 10.1 µM (inactive); in [11] it was 7.01 µM (inactive); in [12] it was 0.755 µM (active). Further, the GI50 was 3.94 µM (inactive) in test [13]; 5.9 µM (inactive) in test [14]; 7.43 µM (inactive) in test [15]; 1.83 µM (inactive) in [16]; 14.7 µM (inactive) in [17]; 13.3 µM (inactive) in test [18]. The GI50 in test [19] was 1.38 µM (inactive); in test [20], 1.72 µM (inactive).

In the case of `NCC(O)CNC(=O)c1ccc(-c2ccc(-c3ccc(C(=O)NCC(O)CN)cc3)o2)cc1` (stereo not given), the GI50 in [1] was > 100 µM (inactive); in [2], 45.9 µM (inactive); in [3], 36.5 µM (inactive); in [4] it was 25 µM (inactive); in [5], 21.4 µM (inactive); in test [6] it was 59 µM (inactive). Moreover, the GI50 in test [7] was 22.6 µM (inactive); in test [8], 18.9 µM (inactive); in [9], > 100 µM (inactive); in test [10], > 100 µM (inactive); in test [11] it was 37.4 µM (inactive); in test [12], > 100 µM (inactive). The GI50 in test [13] was 25.1 µM (inactive); in [14] it was 36.1 µM (inactive); in test [15] it was 25.3 µM (inactive); in test [16], 23.3 µM (inactive); in [17] it was 22.2 µM (inactive); in test [18], 22 µM (inactive). The GI50 in test [19] is 29.6 µM (inactive); in test [20], 18 µM (inactive).
